# Reference: article PMC8325362, “Drugs repurposed for COVID-19 by virtual screening of 6,218 drugs and cell-based assay” (Proceedings of the National Academy of Sciences of the …, 2021)
# Like-named read-outs stand apart in the source and are kept apart here.
# Legend:
# [1] = test system: SARS-CoV-2; assay: microbe, parasite or virus in culture; type: cell-based; settings: Severe acute respiratory syndrome coronavirus 2, Calu-3, 24 h, Calu-3 cells, MOI 0.5, 24 h
# [2] = molecular target: M^pro (Severe acute respiratory syndrome coronavirus 2, UniProt P0DTD1); type: biochemical; settings: FRET assay, 0.1 to 50 μM
# [3] = read-out: Approx. Cmax (maximum serum concentration); human, oral; cited from earlier work
# [4] = Cytotoxicity (CC50) in Vero cells; settings: African green monkey
# [5] = Cytotoxicity (CC50) in Calu-3 cells; settings: human
# [6] = test system: SARS-CoV-2; assay: microbe, parasite or virus in culture; settings: Severe acute respiratory syndrome coronavirus 2, Vero, 24 h, read-out: SARS-CoV-2 IC50 in Vero cells
# [7] = test system: SARS-CoV-2; assay: Checkerboard drug combination assay, SARS-CoV-2 inhibition in Vero cells; type: cell-based; settings: Severe acute respiratory syndrome coronavirus 2, Vero, read-out: Relative viral inhibition (%); for inhibition at 0.69 µM: Tipifarnib 0.69 μM; for inhibition at 1.38 µM: Tipifarnib 1.38 μM; for inhibition at 2.75 µM: Tipifarnib 2.75 μM; for inhibition at 5.5 µM: Tipifarnib 5.50 μM; for inhibition at 11 µM: Tipifarnib 11.00 μM; for inhibition at 22.01 µM: Tipifarnib 22.01 μM; for inhibition at 44.02 µM: Tipifarnib 44.02 μM
# [8] = in vitro; settings: African green monkey, Relative cell viability (%)
smiles,measurement,setting,value
CCN1CCN(c2cc(-c3ccc(F)cc3)c3c(n2)CCCCCC3)CC1 [Blonanserin],IC50,[1],> 50 µM
same,inhibitory activity against M^pro,[2],showed inhibitory activities
same,Cmax,[3],~0.003 µM
same,CC50 at 24 h,[4],30.3 µM
same,CC50 at 24 h,[5],> 50 µM
same,IC50,[6],12 µM
Cn1cncc1[C@@](N)(c1ccc(Cl)cc1)c1ccc2c(c1)c(-c1cccc(Cl)c1)cc(=O)n2C [Tipifarnib],IC50,[1],4.57 µM
same,inhibition at 0.69 µM,"[7]; Fig. 4D, Omipalisib 0.00 μM",4%
same,inhibition at 1.38 µM,"[7]; Fig. 4D, Omipalisib 0.00 μM",4%
same,inhibition at 2.75 µM,"[7]; Fig. 4D, Omipalisib 0.00 μM",6%
same,inhibition at 5.5 µM,"[7]; Fig. 4D, Omipalisib 0.00 μM",11%
same,inhibition at 11 µM,"[7]; Fig. 4D, Omipalisib 0.00 μM",91%
same,inhibition at 22.01 µM,"[7]; Fig. 4D, Omipalisib 0.00 μM",100%
same,inhibition at 44.02 µM,"[7]; Fig. 4D, Omipalisib 0.00 μM",92%
same,inhibition at 0.69 µM,"[7]; Fig. 4G, Remdesivir 0.00 μM",0%
same,inhibition at 1.38 µM,"[7]; Fig. 4G, Remdesivir 0.00 μM",0%
same,inhibition at 2.75 µM,"[7]; Fig. 4G, Remdesivir 0.00 μM",0%
same,inhibition at 5.5 µM,"[7]; Fig. 4G, Remdesivir 0.00 μM",10%
same,inhibition at 11 µM,"[7]; Fig. 4G, Remdesivir 0.00 μM",93%
same,inhibition at 22.01 µM,"[7]; Fig. 4G, Remdesivir 0.00 μM",100%
same,inhibition at 44.02 µM,"[7]; Fig. 4G, Remdesivir 0.00 μM",87%
same,viability,"[8]; Fig. 4E, Tipifarnib 0.69 μM, Omipalisib 0.00 μM",90%
same,viability,"[8]; Fig. 4E, Tipifarnib 1.38 μM, Omipalisib 0.00 μM",91%
same,viability,"[8]; Fig. 4E, Tipifarnib 2.75 μM, Omipalisib 0.00 μM",90%
same,viability,"[8]; Fig. 4E, Tipifarnib 5.50 μM, Omipalisib 0.00 μM",91%
same,viability,"[8]; Fig. 4E, Tipifarnib 11.00 μM, Omipalisib 0.00 μM",76%
same,viability,"[8]; Fig. 4E, Tipifarnib 22.01 μM, Omipalisib 0.00 μM",7%
same,viability,"[8]; Fig. 4E, Tipifarnib 44.02 μM, Omipalisib 0.00 μM",0%
same,viability,"[8]; Fig. 4H, Tipifarnib 0.69 μM, Remdesivir 0.00 μM",91%
same,viability,"[8]; Fig. 4H, Tipifarnib 1.38 μM, Remdesivir 0.00 μM",90%
same,viability,"[8]; Fig. 4H, Tipifarnib 2.75 μM, Remdesivir 0.00 μM",89%
same,viability,"[8]; Fig. 4H, Tipifarnib 5.50 μM, Remdesivir 0.00 μM",88%
same,viability,"[8]; Fig. 4H, Tipifarnib 11.00 μM, Remdesivir 0.00 μM",80%
same,viability,"[8]; Fig. 4H, Tipifarnib 22.01 μM, Remdesivir 0.00 μM",6%
same,viability,"[8]; Fig. 4H, Tipifarnib 44.02 μM, Remdesivir 0.00 μM",0%
same,Cmax,[3],~8.6 µM
same,CC50 at 24 h,[4],16.6 µM
same,CC50 at 24 h,[5],> 50 µM
same,IC50,[6],11 µM
